What all share (type): biochemical
Experiment [1] has as its target T1, Itk (Homo sapiens, UniProt Q08881).
T1 sequence (Q08881 1-620): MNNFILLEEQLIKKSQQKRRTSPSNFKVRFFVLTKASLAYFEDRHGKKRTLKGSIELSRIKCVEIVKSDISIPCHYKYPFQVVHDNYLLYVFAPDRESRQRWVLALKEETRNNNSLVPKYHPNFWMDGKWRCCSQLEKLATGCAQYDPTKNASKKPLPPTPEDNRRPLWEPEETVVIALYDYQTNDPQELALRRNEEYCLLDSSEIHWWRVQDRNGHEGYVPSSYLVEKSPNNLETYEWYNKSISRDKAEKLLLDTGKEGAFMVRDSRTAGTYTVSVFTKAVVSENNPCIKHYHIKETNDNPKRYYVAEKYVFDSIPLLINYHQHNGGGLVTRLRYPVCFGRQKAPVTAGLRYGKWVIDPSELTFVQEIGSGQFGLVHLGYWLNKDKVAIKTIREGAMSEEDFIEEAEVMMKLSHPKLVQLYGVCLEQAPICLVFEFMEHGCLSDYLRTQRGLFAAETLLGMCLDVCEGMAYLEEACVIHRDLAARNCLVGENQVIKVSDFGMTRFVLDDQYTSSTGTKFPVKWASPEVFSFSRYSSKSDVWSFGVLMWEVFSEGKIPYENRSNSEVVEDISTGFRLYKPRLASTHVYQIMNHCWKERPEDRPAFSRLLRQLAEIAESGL
Put plainly: ITK Inhibition Assay (Radiometric), radioactive-phosphate incorporation. The conditions noted are these: enzyme inhibition data (Ki), Table 11; radiometric or UV assay not stated. On the procedure:
Assays are carried out in a mixture of 20 mM MOPS (pH 7.0), 10 mM MgCl2, 0.1% BSA and 1 mM DTT. Final substrate concentrations in the assay are 7.5 μM [γ-33P]ATP (400 mCi 33P ATP/mmol ATP, Amersham Pharmacia Biotech/Sigma Chemicals) and 3 μM peptide (SAM68 protein D332-443). Assays are carried out at 25° C. in the presence of 50 nM Itk. An assay stock buffer solution is prepared containing all of the reagents listed above, with the exception of ATP and the test compound of interest. 50 μL of the stock solution is placed in a 96 well plate followed by addition of 2 μL of DMSO stock containing serial dilutions of the test compound (typically starting from a final concentration of 50 μM with 2-fold serial dilutions) in duplicate (final DMSO concentration 2%). The plate is pre-incubated for 10 minutes at 25° C. and the reaction initiated by addition of 50 μL [γ-33P]ATP (final concentration 7.5 μM).
The reaction is stopped after 10 minutes by the addition of […] 0.2M phosphoric acid+0.01% TWEEN 20. A multiscreen phosphocellulose filter 96-well plate (Millipore, Cat no. MAPHN0B50) is pretreated with 100 μL 0.2M phosphoric acid +0.01% TWEEN 20 prior to the addition of […] of the stopped assay mixture. The plate is washed with 4×200 μL 0.2M phosphoric acid+0.01% TWEEN 20. After drying, 30 μL Optiphase ‘SuperMix’ liquid scintillation cocktail (Perkin Elmer) is added to the well prior to scintillation counting (1450 Microbeta Liquid Scintillation Counter, Wallac).
Ki(app) data are calculated from non-linear regression analysis of the initial rate data using the Prism software package (GraphPad Prism version 3.0cx for Macintosh, GraphPad Software, San Diego Calif., USA).

The target of experiment [2] is c-Met (Homo sapiens, UniProt P08581). Put plainly: c-Met Inhibition Assay, coupled enzyme system. Conditions: enzyme inhibition data (Ki), Table 11. The protocol:
Compounds are screened for their ability to inhibit c-Met kinase activity using a standard coupled enzyme system (Fox et al., Protein Sci. 1998, 7, 2249). Reactions are carried out in a solution containing 100 mM HEPES (pH 7.5), 10 mM MgCl2, 25 mM NaCl, 300 μM NADH, 1 mM DTT, and 1.5% DMSO. Final substrate concentrations in the assay are 200 μM ATP (Sigma Chemicals, St Louis, Mo.) and 10 μM polyGluTyr (Sigma Chemical Company, St. Louis). Reactions are carried out at 30° C. and 80 nM c-Met. Final concentrations of the components of the coupled enzyme system are 2.5 mM phosphoenolpyruvate, 300 μM NADH, 30 μg/ml pyruvate kinase and 10 μg/ml lactate dehydrogenase.
An assay stock buffer solution is prepared containing all of the reagents listed above with the exception of ATP and a test compound of the present invention. The assay stock buffer solution (175 μl) is incubated in a 96 well plate with 5 μl of the test compound of the present invention at final concentrations spanning 0.006 μM to 12.5 μM at 30° C. for 10 minutes. Typically, a 12-point titration is conducted by preparing serial dilutions (from 10 mM compound stocks) with DMSO of the test compounds of the present invention in daughter plates. The reaction is initiated by the addition of 20 μl of ATP (final concentration 200 μM). Rates of reaction are obtained using a Molecular Devices Spectramax plate reader (Sunnyvale, Calif.) over 10 minutes at 30° C. The Ki values are determined from the rate data as a function of inhibitor concentration.

Experiment [3] addresses T2, JAK3 (Homo sapiens, UniProt P52333).
T2 sequence (P52333 1-1124): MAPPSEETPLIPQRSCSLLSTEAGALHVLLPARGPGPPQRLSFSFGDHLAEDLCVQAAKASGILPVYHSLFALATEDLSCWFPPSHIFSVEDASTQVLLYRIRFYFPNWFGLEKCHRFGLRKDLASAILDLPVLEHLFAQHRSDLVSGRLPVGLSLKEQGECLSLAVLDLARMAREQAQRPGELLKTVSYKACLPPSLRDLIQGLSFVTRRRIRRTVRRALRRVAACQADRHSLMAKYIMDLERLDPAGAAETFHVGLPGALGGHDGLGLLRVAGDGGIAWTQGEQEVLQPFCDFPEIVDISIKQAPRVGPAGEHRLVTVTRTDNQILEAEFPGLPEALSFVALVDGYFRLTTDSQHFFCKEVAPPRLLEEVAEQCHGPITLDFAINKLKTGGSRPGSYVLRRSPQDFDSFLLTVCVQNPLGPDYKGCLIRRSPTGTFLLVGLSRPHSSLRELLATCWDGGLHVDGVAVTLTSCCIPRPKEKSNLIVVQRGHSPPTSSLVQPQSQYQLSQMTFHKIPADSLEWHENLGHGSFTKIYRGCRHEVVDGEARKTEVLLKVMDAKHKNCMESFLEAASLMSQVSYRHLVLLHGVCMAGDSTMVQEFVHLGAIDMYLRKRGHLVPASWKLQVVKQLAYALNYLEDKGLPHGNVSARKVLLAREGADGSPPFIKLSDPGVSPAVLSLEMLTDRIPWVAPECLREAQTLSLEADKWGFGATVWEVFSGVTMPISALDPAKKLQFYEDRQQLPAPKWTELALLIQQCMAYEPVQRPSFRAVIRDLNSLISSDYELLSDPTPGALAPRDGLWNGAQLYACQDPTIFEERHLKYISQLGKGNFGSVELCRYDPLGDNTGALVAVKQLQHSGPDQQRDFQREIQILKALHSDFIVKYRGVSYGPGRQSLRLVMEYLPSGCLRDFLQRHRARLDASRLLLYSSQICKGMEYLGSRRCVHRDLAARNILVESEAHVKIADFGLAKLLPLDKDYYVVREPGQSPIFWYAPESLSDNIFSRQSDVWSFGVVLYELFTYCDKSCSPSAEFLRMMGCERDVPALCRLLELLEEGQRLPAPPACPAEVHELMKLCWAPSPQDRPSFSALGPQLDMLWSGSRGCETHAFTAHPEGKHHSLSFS
The experiment in a line: JAK3 Inhibition Assay, 33P incorporation. The conditions noted are these: enzyme inhibition data (Ki), Table 11. On the procedure: Reactions are carried out in a kinase buffer containing 100 mM HEPES (pH 7.4), 1 mM DTT, 10 mM MgCl2, 25 mM NaCl, and 0.01% BSA. Substrate concentrations in the assay are 5 μM ATP (200 uCi/μmole ATP) and 1 μM poly(Glu)4Tyr. Reactions are carried out at 25° C. and 1 nM JAK3. To each well of a 96 well polycarbonate plate is added 1.5 μl of a candidate JAK3 inhibitor along with 50 μl of kinase buffer containing 2 μM poly(Glu)4Tyr and 10 μM ATP. This is then mixed and 50 μl of kinase buffer containing 2 nM JAK3 enzyme is added to start the reaction. After 20 minutes at room temperature (25 C), the reaction is stopped with 50 μl of 20% trichloroacetic acid (TCA) that also contained 0.4 mM ATP. The entire contents of each well are then transferred to a 96 well glass fiber filter plate using a TomTek Cell Harvester. After washing, 60 μl of scintillation fluid is added and ^33P incorporation detected on a Perkin Elmer TopCount.

Chain of c-Met (P08581 25-1390): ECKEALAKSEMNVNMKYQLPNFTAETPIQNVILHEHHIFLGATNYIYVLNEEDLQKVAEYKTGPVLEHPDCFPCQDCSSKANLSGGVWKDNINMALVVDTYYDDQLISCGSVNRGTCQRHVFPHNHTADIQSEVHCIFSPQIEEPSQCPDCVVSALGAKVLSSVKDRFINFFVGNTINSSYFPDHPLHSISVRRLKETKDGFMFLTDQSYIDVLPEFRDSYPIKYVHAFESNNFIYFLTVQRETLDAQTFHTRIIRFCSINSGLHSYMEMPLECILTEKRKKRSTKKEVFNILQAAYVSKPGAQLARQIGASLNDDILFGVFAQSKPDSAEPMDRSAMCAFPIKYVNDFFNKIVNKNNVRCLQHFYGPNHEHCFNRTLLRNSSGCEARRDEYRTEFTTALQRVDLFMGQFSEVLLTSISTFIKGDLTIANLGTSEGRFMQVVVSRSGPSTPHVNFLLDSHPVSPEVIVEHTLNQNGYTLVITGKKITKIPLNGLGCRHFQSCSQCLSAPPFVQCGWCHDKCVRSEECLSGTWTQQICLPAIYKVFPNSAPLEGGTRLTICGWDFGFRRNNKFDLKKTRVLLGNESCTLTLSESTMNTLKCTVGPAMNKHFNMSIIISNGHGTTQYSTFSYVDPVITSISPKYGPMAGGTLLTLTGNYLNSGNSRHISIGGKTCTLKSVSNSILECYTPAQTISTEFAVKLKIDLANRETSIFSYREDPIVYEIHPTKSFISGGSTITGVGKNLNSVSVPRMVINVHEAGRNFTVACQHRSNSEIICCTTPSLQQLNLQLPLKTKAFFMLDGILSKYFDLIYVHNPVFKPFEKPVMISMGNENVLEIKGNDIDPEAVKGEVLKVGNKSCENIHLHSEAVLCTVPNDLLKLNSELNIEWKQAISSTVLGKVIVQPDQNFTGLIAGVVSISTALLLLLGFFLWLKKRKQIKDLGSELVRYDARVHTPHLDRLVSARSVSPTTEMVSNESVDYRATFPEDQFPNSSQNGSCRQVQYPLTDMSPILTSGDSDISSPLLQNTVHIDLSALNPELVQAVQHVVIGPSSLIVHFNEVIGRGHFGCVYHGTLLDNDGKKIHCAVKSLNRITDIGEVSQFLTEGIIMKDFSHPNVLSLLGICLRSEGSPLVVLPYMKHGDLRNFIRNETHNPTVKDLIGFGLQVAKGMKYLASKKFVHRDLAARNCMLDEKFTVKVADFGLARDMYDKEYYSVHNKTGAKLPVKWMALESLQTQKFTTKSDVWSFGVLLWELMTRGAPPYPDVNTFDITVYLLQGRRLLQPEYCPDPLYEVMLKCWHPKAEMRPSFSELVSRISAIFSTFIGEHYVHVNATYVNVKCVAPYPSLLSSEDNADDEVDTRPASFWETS

In the case of `CS(=O)(=O)Nc1ccccc1-c1cnc2c(-c3ccccn3)c(N)nn2c1` [Compound V-16], the Ki (commonly a dissociation constant, usually derived from enzyme kinetics or from competition with a known ligand) in experiment [1] was 500 to 5000 nM; in experiment [2] it was 500 to 5000 nM; in experiment [3], over 5 µM.
Turning to `COC(=O)/C=C/c1ccccc1-c1cnc2c(-c3ccccn3)c(N)nn2c1` [Compound V-17], the figures for the inhibition constant (Ki) in experiment [1], in experiment [2] and in experiment [3] were 500 to 5000 nM, 500 to 5000 nM and over 5 µM, respectively.
With `Nc1nn2cc(-c3ccccc3OC(F)F)cnc2c1-c1ccccn1` [Compound V-19], the inhibition constant Ki is 500 to 5000 nM in experiment [1], 500 to 5000 nM in experiment [2] and over 5 µM in experiment [3].
Turning to `Nc1ccccc1-c1cnc2c(-c3ccccn3)c(N)nn2c1` [Compound V-20], the Ki was 500 to 5000 nM in experiment [1], 500 to 5000 nM in experiment [2] and over 5 µM in experiment [3].
As to `Nc1nn2cc(-c3ccccc3[N+](=O)[O-])cnc2c1-c1ccccn1` [Compound V-21], the inhibition constant Ki in experiment [1] is 500 to 5000 nM; in experiment [2], 500 to 5000 nM; in experiment [3], over 5 µM.
For `CN(C)Cc1ccccc1-c1cnc2c(-c3ccccn3)c(N)nn2c1` [Compound V-23], the values for the inhibitory constant (Ki) in experiment [1], in experiment [2] and in experiment [3] were 500 to 5000 nM, 500 to 5000 nM and over 5 µM, respectively.
Turning to `CCOC(=O)c1c(N)nn2cc(-c3ccccn3)cnc12` [Compound V-25], the Ki in experiment [1] is 500 to 5000 nM; in experiment [2], 500 to 5000 nM; in experiment [3], over 5 µM.
Consider `CCOC(=O)c1c(N)nn2cc(-c3cnccn3)cnc12` [Compound V-26], for which the results for the inhibition constant (Ki) in experiment [1], in experiment [2] and in experiment [3] were 500 to 5000 nM, 500 to 5000 nM and over 5 µM, respectively.
Turning to `CCOC(=O)c1c(N)nn2cc(-c3ccncn3)cnc12` [Compound V-27], the Ki in experiment [1] is 500 to 5000 nM; in experiment [2], 500 to 5000 nM; in experiment [3], over 5 µM.
As to `Nc1nn2cc(-c3ccncn3)cnc2c1C(=O)O` [Compound V-28], the Ki is 500 to 5000 nM in experiment [1], 500 to 5000 nM in experiment [2] and over 5 µM in experiment [3].
As to `Cc1ccc(-c2cnc3c(-c4ccccc4Br)c(N)nn3c2)cc1` [Compound V-31], the Ki in experiment [1] was 500 to 5000 nM; in experiment [2], 500 to 5000 nM; in experiment [3], over 5 µM.
`Nc1nn2cc(-c3ccncn3)cnc2c1C(=O)NCc1ccc(F)cc1F` [Compound V-32]: the results for the inhibitory constant (Ki) in experiment [1], in experiment [2] and in experiment [3] were 500 to 5000 nM, 500 to 5000 nM and over 5 µM, respectively.
On to `Nc1nn2cc(-c3ccncn3)cnc2c1C(=O)N1CCC[C@H]1CN1CCCC1` [Compound V-34], for which the Ki is 500 to 5000 nM in experiment [1], 500 to 5000 nM in experiment [2] and over 5 µM in experiment [3].
`CN(C)CCN(Cc1ccccc1)C(=O)c1c(N)nn2cc(-c3ccncn3)cnc12` [Compound V-35]: the Ki is 500 to 5000 nM in experiment [1], 500 to 5000 nM in experiment [2] and over 5 µM in experiment [3].
Consider `CCN(Cc1ccncc1)C(=O)c1c(N)nn2cc(-c3ccncn3)cnc12` [Compound V-36], for which the inhibitory constant (Ki) in experiment [1] was 500 to 5000 nM; in experiment [2] it was 500 to 5000 nM; in experiment [3] it was over 5 µM.
Turning to `Nc1nn2cc(-c3ccncn3)cnc2c1C(=O)N(CCO)Cc1ccccc1` [Compound V-37], the inhibition constant Ki in experiment [1] is 500 to 5000 nM; in experiment [2], 500 to 5000 nM; in experiment [3] it was over 5 µM.
Consider `N#CCCN(Cc1ccccc1)C(=O)c1c(N)nn2cc(-c3ccncn3)cnc12` [Compound V-38], for which the Ki was 500 to 5000 nM in experiment [1], 500 to 5000 nM in experiment [2] and over 5 µM in experiment [3].
On to `Nc1nn2cc(-c3ccncn3)cnc2c1C(=O)N1CCC[C@H]1CO` [Compound V-39], for which the results for the Ki in experiment [1], in experiment [2] and in experiment [3] were 500 to 5000 nM, 500 to 5000 nM and over 5 µM, respectively.
As for `CN(CCC#N)C(=O)c1c(N)nn2cc(-c3ccncn3)cnc12` [Compound V-40], the inhibitory constant (Ki) in experiment [1] was 500 to 5000 nM; in experiment [2], 500 to 5000 nM; in experiment [3] it was over 5 µM.
With `CN(Cc1ccccc1)C(=O)c1c(N)nn2cc(-c3ccncn3)cnc12` [Compound V-41], the Ki is 500 to 5000 nM in experiment [1], 500 to 5000 nM in experiment [2] and over 5 µM in experiment [3].
In the case of `CCN(Cc1ccccc1)C(=O)c1c(N)nn2cc(-c3ccncn3)cnc12` [Compound V-42], the inhibition constant (Ki) in experiment [1] is 500 to 5000 nM; in experiment [2], 500 to 5000 nM; in experiment [3], over 5 µM.

For the origin of these results see patent publication US7528138B2, “Pyrazolo[1,5-a]pyrimidines useful as inhibitors of protein kinases” (Vertex Pharmaceuticals Incorporated, priority 2004, dated 2009).
